Experiments:
[1] = tested on: Hypothetical Protein (GI 14758649), similar to heat shock protein (90 kDa) beta (PG787); assay: Isolation of proteins binding 3H-triptolide in Jurkat cells; parameters: species or system human; settings: 3H-labeled Jurkat cell extract
Method: (§1) Triptolide target molecules were isolated and identified by purification and identification of molecules that bind ^3H-triptolide. Jurkat cells from expanding cultures were labeled with ^3H-triptolide by cultivation at 37° C. with 5% CO2 for a period of time between a few hours and overnight (usually 6-7 hours) and harvested by centrifugation and washing in ice-cold phosphate buffered saline. The cells (usually 1-3×10^6/ml) were generally labeled with ^3H-triptolide to a final concentration of 35 nM (100 μCi/200 ml of medium). Collected cell pellets were pooled, and the cells were either extracted and subjected to separation and purification at that time, or were frozen and stored at −20° C. as pellets for extraction and investigation at a later time.
(§2) The cells were extracted with M-per buffer (Pierce) and homogenized in presence of a protease inhibitor cocktail, sometimes including other reagents such as deoxyribonuclease (DNase). […] When the extracts components were found not to be sufficiently purified, enriched or reduced in number, 2D gel electrophoresis was employed, followed by fluorography for ^3H-associated radioactivity detection, and MALDI/MS of the corresponding peptides (after proteolysis) and peptide fingerprinting. […]

[2] = target: T1, L-plastin (PG772) (Homo sapiens, UniProt P13796); assay: as above; settings: 3H-labeled compound incubated with Jurkat cells
T1 construct: Jurkat cells from expanding cultures were labeled with; endogenous in cells; host or cells: Jurkat
Method: as §1, with “Collected cell pellets were pooled, and the cells were either extracted and subjected to separation and purification at that time, or were frozen and stored at −20° C. as pellets for extraction and investigation at a later time.” left out
as §2
(§3) MALDI-MS peptide fingerprinting analysis identified HSP 90β (PG771) in fraction #4 and L-plastin (PG772) in fraction #9. […] A positive spot on the film (fluorographically positive, therefore positive for ^3H-associated radioactivity) was seen near the 29 kDa protein marker. […]

[3] = target: T2, Eukaryotic Translation Elongation Factor 2 (EEF2) (PG786) (Homo sapiens, UniProt P13639); assay: as above; settings: 3H-labeled Jurkat cell extract
T2 construct: endogenous in cells; host or cells: Jurkat
Method: as §1, §2

[4] = target: T3, 14-3-3 ε (PG773) (Homo sapiens, UniProt P62258); assay: as above; settings: 3H-labeled compound incubated with Jurkat cells
T3 construct: endogenous in cells; host or cells: Jurkat
Method: as §1, with “Collected cell pellets were pooled, and the cells were either extracted and subjected to separation and purification at that time, or were frozen and stored at −20° C. as pellets for extraction and investigation at a later time.” left out
as §2, §3

[5] = tested on: T4, Hypothetical Protein (GI 11277141), superfamily HSP 90 (PG788) (Homo sapiens); assay: as above; settings: 3H-labeled Jurkat cell extract
T4 construct: endogenous in cells; host or cells: Jurkat
Method: as §1, §2

[6] = tested on: dopaminergic neurons; settings: cited from earlier work
[7] = target: T5, Vimentin (PG778) (Homo sapiens, UniProt P08670); assay: Isolation of proteins binding 3H-triptolide in Jurkat cells; settings: 3H-labeled Jurkat cell extract
T5 construct: endogenous in cells; host or cells: Jurkat
Method: as §1, §2

[8] = tested on: PC12 cells; settings: cited from earlier work

T4 sequence (P08238 2-724 limits assumed): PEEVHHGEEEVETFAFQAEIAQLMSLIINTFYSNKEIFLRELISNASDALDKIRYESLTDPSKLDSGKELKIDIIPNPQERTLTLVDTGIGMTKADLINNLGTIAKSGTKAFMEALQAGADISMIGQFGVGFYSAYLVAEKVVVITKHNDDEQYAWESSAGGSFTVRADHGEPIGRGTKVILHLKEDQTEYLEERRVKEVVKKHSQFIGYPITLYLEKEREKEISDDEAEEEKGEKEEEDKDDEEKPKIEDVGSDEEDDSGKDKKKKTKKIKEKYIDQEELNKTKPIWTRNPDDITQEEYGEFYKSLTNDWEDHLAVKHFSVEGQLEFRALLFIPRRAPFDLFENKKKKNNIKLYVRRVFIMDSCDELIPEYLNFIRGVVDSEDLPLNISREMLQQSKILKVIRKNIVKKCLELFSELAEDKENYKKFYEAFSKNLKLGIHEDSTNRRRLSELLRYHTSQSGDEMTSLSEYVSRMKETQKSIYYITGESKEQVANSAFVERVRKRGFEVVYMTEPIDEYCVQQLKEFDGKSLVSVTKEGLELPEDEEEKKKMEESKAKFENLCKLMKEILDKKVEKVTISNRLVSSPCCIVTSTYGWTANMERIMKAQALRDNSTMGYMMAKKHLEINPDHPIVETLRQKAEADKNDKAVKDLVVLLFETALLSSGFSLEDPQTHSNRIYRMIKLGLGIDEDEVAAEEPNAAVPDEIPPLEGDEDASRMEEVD
T5 sequence (P08670 whole entry): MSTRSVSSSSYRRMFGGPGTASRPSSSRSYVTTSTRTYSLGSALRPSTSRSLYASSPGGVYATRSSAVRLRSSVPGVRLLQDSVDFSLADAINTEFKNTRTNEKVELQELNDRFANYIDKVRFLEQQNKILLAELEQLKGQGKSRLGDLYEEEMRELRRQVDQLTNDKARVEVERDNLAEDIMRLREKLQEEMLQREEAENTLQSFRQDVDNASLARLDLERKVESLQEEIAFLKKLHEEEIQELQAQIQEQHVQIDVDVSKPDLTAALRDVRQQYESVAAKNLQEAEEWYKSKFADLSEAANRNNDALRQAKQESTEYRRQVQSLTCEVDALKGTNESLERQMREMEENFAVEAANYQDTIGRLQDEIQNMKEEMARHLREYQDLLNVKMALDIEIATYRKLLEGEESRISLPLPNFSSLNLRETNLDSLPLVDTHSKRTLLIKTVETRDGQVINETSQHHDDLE
T3 sequence (P62258 whole entry): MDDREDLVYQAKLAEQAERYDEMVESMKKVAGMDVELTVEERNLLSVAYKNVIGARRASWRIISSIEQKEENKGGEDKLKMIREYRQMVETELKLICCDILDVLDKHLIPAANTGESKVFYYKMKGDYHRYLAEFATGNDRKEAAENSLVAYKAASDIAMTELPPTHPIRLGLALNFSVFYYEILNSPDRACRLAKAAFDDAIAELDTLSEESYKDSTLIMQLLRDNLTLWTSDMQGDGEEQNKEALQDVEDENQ
T1 sequence (P13796 whole entry): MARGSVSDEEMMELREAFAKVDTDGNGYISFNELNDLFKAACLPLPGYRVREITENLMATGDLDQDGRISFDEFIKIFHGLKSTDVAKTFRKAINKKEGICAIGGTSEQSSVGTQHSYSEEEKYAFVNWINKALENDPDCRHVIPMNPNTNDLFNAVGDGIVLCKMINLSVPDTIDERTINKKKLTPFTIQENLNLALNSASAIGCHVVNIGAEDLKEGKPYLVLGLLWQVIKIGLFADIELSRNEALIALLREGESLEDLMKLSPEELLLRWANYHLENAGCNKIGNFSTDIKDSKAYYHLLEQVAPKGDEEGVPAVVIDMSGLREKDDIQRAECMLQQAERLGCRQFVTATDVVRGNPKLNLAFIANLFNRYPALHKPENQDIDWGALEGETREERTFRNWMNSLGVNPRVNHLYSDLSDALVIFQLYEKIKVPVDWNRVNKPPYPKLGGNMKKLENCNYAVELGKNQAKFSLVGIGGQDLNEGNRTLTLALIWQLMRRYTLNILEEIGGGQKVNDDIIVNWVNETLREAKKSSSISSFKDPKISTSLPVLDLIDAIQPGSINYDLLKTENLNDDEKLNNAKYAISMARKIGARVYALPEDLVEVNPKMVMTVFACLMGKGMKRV

CC(C)[C@]12O[C@H]1[C@@H]1O[C@]13[C@]1(O[C@H]1C[C@H]1C4=C(CC[C@@]13C)C(=O)OC4)[C@@H]2O [triptolide]
3H-associated protein identified as triptolide target: GI 14758649 [1]: identified
3H-associated protein identified as triptolide target: L-plastin [2]: identified
3H-associated protein identified as triptolide target: EEF2 [3]: identified
3H-associated protein identified as triptolide target: 14-3-3 ε [4]: identified
3H-associated protein identified as triptolide target: GI 11277141 [5]: identified
LPS-induced decrease in 3H-dopamine uptake and loss of tyrosine hydroxylase-positive neurons [6]: attenuates
3H-associated protein identified as triptolide target: Vimentin [7]: identification
β-amyloid-induced apoptosis [8]: markedly inhibit β-amyloid-induced apoptosis
β-amyloid-induced increase of intracellular Ca2+ concentration [8]: inhibit the increase of intracellular Ca^2+ concentration induced by β-amyloid
